Key:
human aortic SMCs [1] = test: Serum-stimulated proliferation of human aortic SMCs (viable cell count); format: cell-based
Experimental: Human aortic SMCs were obtained at passage 3 (AoSMC; Lonza Walkersville, Inc., Walkersville, Md.). The cells were maintained in culture in a humidified incubator at 37 C and 5% CO2 in smooth muscle cell growth medium (SmG M-2). Cells were trypsinized and passaged at 95% confluence. Studies were performed using cells at passages 4 to 6 at 6 0 to 90% confluence. Cells were counted using an automated cell counter (NucleoCounter; New Brunswick Scientific, Edison, N.J.).
We first studied the effect of HO-3867 on serum-stimulated proliferation of human aortic SMCs, in vitro (FIG. 1A).
(§1) The cells were then treated with 0, 0.5, 1, 5, and 10 μM HO-3867 for 24 h, after which the cells were trypsinized and counted for viability. […] We observed inhibition of SMC proliferation by both phase-contrast microscopy (FIG. 1B) and by nuclear staining with DAPI (FIG. 1C). Next, we determined whether the growth inhibition of SMC by HO-3867 was due to cell cycle arrest or apoptosis. SMCs were treated with 10 μM HO-3867 for 12 or 24 h. The cells were then fixed, and cell cycle populations were determined by flow cytometry.

human aortic SMCs [2] = test: Cell cycle analysis by flow cytometry in SMCs; format: cell-based; settings: 10 μM for 12 or 24 h
Experimental: Flow cytometry was performed (Selvendiran K, Bratasz A, Tong L, Ignarro L J, and Kuppusamy P, NCX-4016, a nitro-derivative of aspirin, inhibits EGFR and STAT3 signaling and modulates Bcl-2 proteins in cisplatin-resistant human ovarian cancer cells and xenografts. Cell Cycle 7 :8188).
as §1

PTEN [3] = test: PTEN expression and activation in SMCs (Western blot, immunofluorescence, RT-PCR); format: cell-based, human; set-up: PTEN mRNA expression: dose or concentration left out as unconfirmed
Experimental: (§2) Western blotting was performed as reported previously (Selvendiran K, Tong L, Vishwanath S, Bratasz A, Trigg N J, Kutala V K, Hideg K, and Kuppusamy P, EF 24 induces G 2/M arrest and apoptosis in cisplatin-resistant human ovarian cancer cells by increasing PTEN expression. J Biol Chem 282::28609-28618).
(§3) SMCs, grown on Lab-Tek Chamber slides (Nalge Nunc International, Rochester, N.Y.), were fixed with 4% paraformaldehyde for 10 min at room temperature and then washed in PBS containing 0.05% Tween 20. Nonspecific reactions were blocked with Protein B lock Serum-Free (DAKO, Kyoto, Japan) and then incubated with an anti-PTEN, MMP-2, or MMP-9 antibody at 4 C overnight. After washing in PBS containing 0.05% Tween 20, the specimens were treated with Alexa Fluor goat anti-mouse IgG (H+L) antibody (Invitrogen, Carlsbad, Calif.) for 45 min at room temperature and then counterstained by propidium iodide after digestion of RNA by RNase (Invitrogen). The immunostaining of PTEN, MMP-2, and MMP-9 proteins was visualized using a fluorescence microscope (Nikon, Tokyo, Japan).
Total RNA was isolated from SMCs using the RNeasy system according to the instructions of the manufacturer. RNA quantification was done using spectrophotometry. Reverse transcription (RT)-PCR analysis for the mRNA expressions in PTEN and the internal control GAPDH was carried out using a GeneAmp PCR System Veriti thermo cycler (Applied Biosystems, Foster City, Calif.) under the following conditions: initial denaturation at 94 C for 2 min, 35 cycles of amplification (denaturation at 94 C for 30 s, annealing at 50 C for 30 s, and extension at 72 C for 30 s), and extension at 72 C for 5 min. The sequences (5′-3′) for the primer pairs of PTEN and GAPDH, respectively, were as follows:
This was further confirmed by immunofluorescence microscopy (FIG. 2B).
To confirm whether the increase in the expression of PTEN was due to its transcriptional induction by HO-3867, we performed RT-PCR analysis for PTEN mRNA.

ATF-2 = ATF-2 activation in SMCs (Western blot); format: cell-based, human; set-up: dose or concentration left out as unconfirmed; settings: HO-3867 (FIG. 3A legend)
Experimental: as §2
(§4) We next wanted to check the involvement of reactive oxygen species-mediated p38 mitogen-activated protein kinase pathways in the activation of ATF-2.

reactive oxygen species = test: Production of reactive oxygen species in cultured SMCs; format: cell-based, human; settings: data not shown
Source text: as §4

[4] = system: p38 mitogen-activated protein kinase; test: Activation of p38 mitogen-activated protein kinase in cultured SMCs; format: cell-based, human; settings: data not shown
Source text: as §4

MMP-2 [5] = test: MMP-2 expression in SMCs (Western blot, immunofluorescence); format: cell-based, human; settings: 10 μM for 12 or 24 h
Experimental: as §2, §3
(§5) We investigated whether the HO-3867-induced PTEN expression could suppresses MMP expression in SMCs.

MMP-9 [6] = test: MMP-9 expression in SMCs (Western blot, immunofluorescence); format: cell-based, human; settings: 10 μM for 12 or 24 h
Experimental: as §2, §3, §5

NF-κB p65 = NF-κB p65 expression in SMCs (Western blot); format: cell-based, human; settings: 10 μM, 24-h exposure
Experimental: as §2
In addition, HO-3867 inhibited NF-κB p65, one of the main regulator mechanisms in the inflammatory activation of MMP-9 in SMCs (FIG. 5A).

FAK = FAK expression in SMCs (Western blot); format: cell-based, human; settings: 10 μM, 24-h exposure
Experimental: as §2

[7] = system: human aortic endothelial cells; test: Inhibitory effect on human aortic endothelial cells; format: cell-based; settings: 10 μM
[8] = system: p53, p21, ERK1/2, cyclin D1, Akt; test: Cell cycle regulatory proteins in SMCs (Western blot); format: cell-based, human; settings: SMCs treated with HO-3867
Experimental: as §2

[9] = system: PTEN cDNA-transfected SMCs; test: PTEN cDNA-transfected SMCs treated with HO-3867 (survival, cell cycle, cleaved caspase-3); format: cell-based, human
Experimental: The PTEN siRNA and cDNA transfection experiments were performed as reported (Selvendiran et al., 2007, supra).
We investigated whether the PTEN overexpression was responsible for the inhibition of cell survival and proliferation in SMCs. We used wild-type PTEN cDNA transfection into SMCs for these experiments. Twenty-four hours after transfection, the cells were treated with 10 μM HO-3867 for 12 h.

rat carotid artery = test: Neointimal formation after balloon injury in rat carotid artery (morphometric analysis); format: in vivo, Sprague-Dawley rats; settings: subcutaneous
Experimental: (§6) All experiments involving animals were performed in accordance with the relevant guidelines and regulations approved by the Internal Animal Care and Use Committee of The Ohio State University. Sprague-Dawley rats weighing 300 to 350 g were anesthetized by an intraperitoneal injection of ketamine (6 0 mg/kg) and xylazine (5 mg/kg). Under a stereomicroscope, the right common, external, and internal carotid arteries were exposed by a longitudinal midline cervical incision. Blood flow was temporarily interrupted by ligation of the common and internal carotid arteries using vessel clips. The external carotid artery was ligated permanently using 6-0 silk suture. A 2F Fogarty arterial embolectomy catheter (Edwards Lifesciences, Irvine, Calif.) was introduced through an arteriotomy in the external carotid artery just below the ligature and advanced to the common carotid artery. To produce the injury, the balloon was inflated with saline and passed six times with rotation from just under the proximal edge of the omohyoid muscle to the carotid bifurcation. The balloon was then deflated, and the catheter was withdrawn. Blood flow was restored by removing the clips on the common and internal carotid arteries. After visual inspection to ascertain adequate pulsation of the common carotid artery, the surgical incision was closed, and the rats were allowed to recover from anesthesia in a humidified and warmed chamber for 2 to 4 h.
Immediately after completion of the carotid injury procedure, subcutaneous administration of HO-3867 (in 10% DMSO+40% polyethylene glycol+50% PBS) commenced at a dose of 5 or 10 mg/kg/day, and continued for 2 weeks (n=5 for each group). The control group received the vehicle only. After treatment for 14 days, the animals were sacrificed with an overdose of pentobarbital (200 mg/kg), and the carotid arteries were collected for morphometric analysis and isolation of proteins for analysis by Western blotting. […] The intimal and medial areas were measured using MetaMorph software (Molecular Devices, Sunnyvale, Calif.), and intimal/medial ratios were calculated. […]

PTEN [10] = test: PTEN expression in rat carotid artery tissue after balloon injury; format: in vivo, Sprague-Dawley rats; settings: subcutaneous, 14 days
Experimental: as §2
(§7) All experiments involving animals were performed in accordance with the relevant guidelines and regulations approved by the Internal Animal Care and Use Committee of The Ohio State University. Sprague-Dawley rats weighing 300 to 350 g were anesthetized by an intraperitoneal injection of ketamine (6 0 mg/kg) and xylazine (5 mg/kg). Under a stereomicroscope, the right common, external, and internal carotid arteries were exposed by a longitudinal midline cervical incision. Blood flow was temporarily interrupted by ligation of the common and internal carotid arteries using vessel clips. The external carotid artery was ligated permanently using 6-0 silk suture. […]
(§8) Immediately after completion of the carotid injury procedure, subcutaneous administration of HO-3867 (in 10% DMSO+40% polyethylene glycol+50% PBS) commenced at a dose of 5 or 10 mg/kg/day, and continued for 2 weeks (n=5 for each group). […] The intimal and medial areas were measured using MetaMorph software (Molecular Devices, Sunnyvale, Calif.), and intimal/medial ratios were calculated. […]

[11] = system: MMP-2, MMP-9, NF-κB p65, pERK1/2, pAkt, cyclin D1, p53, cleaved caspase-3; test: Western blot of regulatory proteins in rat carotid artery tissue after balloon injury; format: in vivo, Sprague-Dawley rats
Experimental: as §2
as §6, with “After visual inspection to ascertain adequate pulsation of the common carotid artery, the surgical incision was closed, and the rats were allowed to recover from anesthesia in a humidified and warmed chamber for 2 to 4 h.” left out
Immediately after completion of the carotid injury procedure, subcutaneous administration of HO-3867 (in 10% DMSO+40% polyethylene glycol+50% PBS) commenced at a dose of 5 or 10 mg/kg/day, and continued for 2 weeks (n=5 for each group). […] The intimal and medial areas were measured using MetaMorph software (Molecular Devices, Sunnyvale, Calif.), and intimal/medial ratios were calculated.

MMP-2 [12] = test: MMP-2 activity by gelatin zymography in rat carotid artery; format: in vivo, Sprague-Dawley rats; settings: treatment group compared with injured/untreated group
Experimental: (§9) MMP-2 and MMP-9 was determined by gelatin zymography as reported previously (Cho and Reidy, 2002). Matrix metalloproteinase-9 is necessary for the regulation of smooth muscle cell replication and migration after arterial injury. Circ Res 91:845-851).
as §7, §8

MMP-9 [13] = test: MMP-9 activity by gelatin zymography in rat carotid artery; format: in vivo, Sprague-Dawley rats; settings: treatment group compared with injured/untreated group
Experimental: as §9, §7, §8

[14] = 10 μM, as early as 1 h of treatment, immunoblot
[15] = Western blot of carotid tissue, 14 days treatment

## CC1(C)C=C(CN2C/C(=C\c3ccc(F)cc3)C(=O)/C(=C/c3ccc(F)cc3)C2)C(C)(C)N1O [HO-3867, 1-[(1-Oxyl-2,2,5,5-tetramethyl-2,5-dihydro-1H-pyrrol-3-yl)methyl]-(3E,5E)-3,5-Bis(4-fluorobenzylidene)piperidin-4-one]
Human aortic SMCs [1]; 0, 0.5, 1, 5, and 10 μM for 24 h, FBS-stimulated SMCs
  viable cell count: decreased in a concentration-dependent manner
Human aortic SMCs [1]; 10% FBS-stimulated human SMCs, HO-3867 for 24 h, viable cell count
  EC50: 3.82 µM
Human aortic SMCs [1]; at 1, 5, and 10 μM, 24 h, p<0.05 versus untreated cells
  cell-counts: Significantly reduced cell-counts
Human aortic SMCs [2]
  sub-G1 population (apoptosis): no effect
Human aortic SMCs [2]; time-dependent
  G1 cell cycle arrest: induced G1 cell cycle arrest
PTEN [3]; [14]
  PTEN activation (pPTEN): induced
  PTEN expression: induced
PTEN [3]; RT-PCR, in 3 h
  PTEN mRNA expression: increase
ATF-2
  time to ATF-2 activation: ≤ 15 min
Reactive oxygen species
  production of reactive oxygen species: did not detect
[4]
  activation of p38 mitogen-activated protein kinase: did not detect
MMP-2 [5]
  MMP-2 expression: down-regulated
MMP-9 [6]
  MMP-9 expression: down-regulated
NF-κB p65
  NF-κB p65: inhibited
FAK
  expression of FAK: down-regulated
[7]
  inhibitory effect on human aortic endothelial cells: did not have any significant inhibitory effect
[8]
  Akt level: without any change
  ERK1/2 and cyclin D1: down-regulation
  p53 and p21: induction
[9]; 10 μM HO-3867, compared with untreated or nontransfected cells
  survival of PTEN cDNA-transfected cells: even more significant reduction
[9]; 10 μM, 12 h, compared with PTEN cDNA- or HO-3867-alone-treated groups
  apoptotic population (sub-G1), PTEN cDNA overexpression plus HO-3867: significantly increased
[9]; 10 μM, 12 h, compared with untreated or nontransfected cells
  cleaved caspase-3 levels, PTEN cDNA+HO-3867-treated cells: substantial increase
Rat carotid artery; 5 mg/kg, 14 days, data not shown
  inhibition of neointimal formation: did not show any significant inhibition
Rat carotid artery; daily for 14 days after balloon injury, versus injured/untreated
  intima/media ratio: significantly reduced
Rat carotid artery; daily for 14 days after balloon injury, 10 mg/kg (FIG. 7A)
  intimal thickening: significantly inhibited
PTEN [10]; 5 mg/kg
  PTEN level in carotid artery tissue: restored PTEN to the control level
PTEN [10]; 10 mg/kg
  PTEN level in carotid artery tissue: increased the PTEN level significantly above control level
[11]; 10-mg/kg dose
  apoptosis in vivo (activation of cleaved caspase-3): induced apoptosis in vivo
[11]; [15]
  MMP-2, MMP-9, NF-κB p65, pERK1/2, pAkt, and cyclin D1 in tissue: down-regulation
  p53 and cleaved caspase-3 in tissue: up-regulation
MMP-2 [12]
  MMP-2 activity: significantly down-regulated
MMP-9 [13]
  MMP-9 activity: significantly down-regulated

— patent US8722707B1, “Compositions and methods for inhibition of smooth muscle cell proliferation and neointimal hyperplasia” (The Ohio State University, priority 2009, dated 2014)
